Measurements published in ChEMBL document CHEMBL2331180, “Synthetic glycolipids for glioma growth inhibition developed from neurostatin and NF115 compound” (2013).
The source made the active and inactive calls. No cut-off for these calls is given here.

Columns and labels:
[1] = Antiproliferative activity against human […] cells assessed as inhibitory activity measured after 36 hrs by [3H]thymidine incorporation assay; format: functional; details: read-out: ID50 (the source's name)
[2] = Antiproliferative activity against human […] cells assessed as Human epsilon 14-3-3 protein gene repression at IC50 concentration after 24 hrs by microarray analysis relative to control; format: functional
[3] = Antiproliferative activity against human […] cells assessed as Tumor protein p53 gene repression at IC50 concentration after 24 hrs by microarray analysis relative to control; format: functional
[4] = Antiproliferative activity against human […] cells assessed as Rho GDP dissociation inhibitor (GDI) alpha gene repression at IC50 concentration after 24 hrs by microarray analysis relative to control; format: functional
[5] = Antiproliferative activity against human […] cells assessed as Solute carrier family 4, anion exchanger, member 2 (erythrocyte membrane protein band 3-like 1) gene repression at IC50 concentration after 24 hrs by microarray analysis relative to control; format: functional
[6] = Antiproliferative activity against human […] cells assessed as Human Bcl-x beta gene repression at IC50 concentration after 24 hrs by microarray analysis relative to control; format: functional
[7] = system: C6; test: Antitumor activity against rat C6 cells transplanted to rat assessed as reduction in tumor growth at 8 mg/kg, intra-tumor treated after 1 week of tumor injection measured up to 15 days relative to untreated control; format: functional, organism-based; set-up: dose 8 mg/kg

Row | Structure (SMILES) | IC50 [1] | fold change (FC) [2] | fold change (FC) [3] | fold change (FC) [4] | fold change (FC) [5] | fold change (FC) [6] | Activity [7]
1 | CCCCCCCCO[C@H]1O[C@H](COCC(CO)(CO)CO)[C@@H](O)[C@H](O)[C@H]1NC(C)=O | 180 µM | 0.5 | 0.5 | 0.3 | 0.7 | 0.3 | –
2 | CCCCCCCCCCCCCCCCO[C@H]1O[C@H](COCC(CO)(CO)COS(=O)(=O)O)[C@@H](O)[C@H](O)[C@H]1NC(=O)CCCC | 3.2 µM | – | – | – | – | – | Active
3 | CCCCCCCCCCCCCCCCO[C@H]1O[C@H](CO)[C@@H](O)[C@H](O)[C@H]1NC(C)=O | 13 µM | – | – | – | – | – | inactive
4 | CCCCCCCCCCCCCCCCO[C@H]1O[C@H](COCC(O)CO)[C@@H](O)[C@H](O)[C@H]1NC(=O)CCCC (some centres not stated) | 4.6 µM | – | – | – | – | – | inactive
